Five substances from article PMC10587126, “Molecular hybridization strategy for tuning bioactive peptide function” (Communications Biology, 2023) can be followed below.

No end group written: not given here. Some results are limits rather than exact numbers.

Data set [1] in a line: Resistance to proteolytic degradation in fetal bovine serum. It is filed as in vitro ADME. To be noted: 25% fetal bovine serum in water, 37 °C; for Peptide remaining: LC peak area, time 0 = 100. How it is done:
Stability assays were performed following the protocol described by Torres et al.[67]. Briefly, a peptide solution was added to GIBCO fetal bovine serum diluted to 25% in water and kept at 37 °C. The degradation kinetics were monitored by liquid chromatography and the percentage of peptide remaining in each case was calculated by integrating the peptide peak area. These experiments were performed as three independent replicates, and aliquots were taken at 0, 0.5, 1, 2, 4, and 6 h.

Data set [2] concerns human erythrocytes. Briefly: Hemolytic activity. It is filed as cell-based. To be noted: 0.1–100 μmol L^−1 in PBS, room temperature, 1 h, absorbance 405 nm. How it is done:
Assays against freshly collected human erythrocytes were performed following protocols described by Pedron et al.[54]. Briefly, peptide aliquots at concentrations ranging from 0.1 to 100 μmol L^−1 were incubated with a suspension of erythrocytes at room temperature for 1 h. The samples were then centrifuged, and the absorbance of the supernatant was measured at 405 nm. […] The surfactant SDS and PBS buffer were used as positive[81],[82] and negative controls, respectively. Sodium heparin was used as an anticoagulant when collecting human blood. Three biological repeats were performed. All experiments were performed in accordance with the protocol CEUA/IB #I-1345/15 approved by the Instituto Butantan.

Data set [3] deals with A. baumannii ATCC 19606. Kind of data set: Skin abscess infection mouse model, CFU quantification. It is filed as in vivo, Acinetobacter baumannii (in female CD-1 mice). To be noted: female CD-1 mice, 1 × 10^7 CFU, peptide onto the abscess at MIC. How it is done:
(§1) The anti-infective activity of the peptides VmCT1, temporin A, VT, and TV against A. baumannii ATCC 19606 was evaluated as described by Torres et al.[7],[83] Bacteria were grown in tryptic soy broth medium to an optical density of 0.5 at 600 nm. Cells were washed twice with sterile phosphate-buffered saline (pH 7.4, 13,000 rpm for 1 min) and resuspended to a final concentration of 1 × 10^7 CFU/20 μL. To generate the skin infection, female CD-1 mice (6-weeks-old) were first anesthetized with isoflurane and their backs were shaved. Using a needle, a superficial linear abrasion was made on the shaved area of the mice to injure just the stratum corneum and the upper layer of the epidermis. An aliquot of 20 μL containing 1 × 10^7 CFU of A. baumannii was then inoculated over the wound area with a pipette tip. The next day, the infected area was treated with the peptides (i.e., VmCT1, temporin A, VT, and TV), which were administered onto the abscess at their MIC. The animals were euthanized, and the scarified skin area removed 2- and 4-days post-infection. The excised area was homogenized using a bead beater for 20 min (25 Hz) and serially diluted for CFU quantification. Eight mice were used per group (n = 8). All experiments were performed in accordance with protocol 806763 approved by the IACUC at the University of Pennsylvania.

Data set [4] is described as follows: Mouse body weight in the skin abscess infection model. It counts as in vivo. As to the method: as §1

On to FLGSLWRKAGTVF-NH2 [VD], for which the Peptide remaining is 33.7 in data set [1] (0.5 h, replicate 1); 43.8 in data set [1] (0.5 h, replicate 2); 94.3 in data set [1] (0.5 h, replicate 3); 66.3 in data set [1] (1 h, replicate 1); 77.3 in data set [1] (1 h, replicate 2); 49.4 in data set [1] (1 h, replicate 3). For the same substance, the Peptide remaining in data set [1] (2 h, replicate 1) was found to be 38.2; in data set [1] (2 h, replicate 2), 88.5; in data set [1] (2 h, replicate 3) it was 63.8; in data set [1] (4 h, replicate 1) it was 66.4; in data set [1] (4 h, replicate 2), 45.3; in data set [1] (4 h, replicate 3), 44.7. In addition, the Peptide remaining was 56.9 in data set [1] (6 h, replicate 1); 59.8 in data set [1] (6 h, replicate 2); 0.0 in data set [1] (6 h, replicate 3). Besides, the “Hemolytic activity (concentration of peptide needed to kill 10% of red blood cells)” value in data set [2] is given as “no hemolytic activity was detected”.

With GLGALLNVIKSGL-NH2 [AV], the Peptide remaining in data set [1] (0.5 h, replicate 1) came to 31.1; in data set [1] (0.5 h, replicate 2) it was 34.0; in data set [1] (0.5 h, replicate 3) it was 0.0; in data set [1] (1 h, replicate 1), 27.7; in data set [1] (1 h, replicate 2), 32.8; in data set [1] (1 h, replicate 3), 0.0. In addition, the Peptide remaining came out at 39.7 in data set [1] (2 h, replicate 1); 49.0 in data set [1] (2 h, replicate 2); 0.0 in data set [1] (2 h, replicate 3); 26.2 in data set [1] (4 h, replicate 1); 41.8 in data set [1] (4 h, replicate 2); 0.0 in data set [1] (4 h, replicate 3). In addition, the Peptide remaining in data set [1] (6 h, replicate 1) is 0.0; in data set [1] (6 h, replicate 2), 0.0; in data set [1] (6 h, replicate 3) it was 0.0. In addition, the “Hemolytic activity (concentration of peptide needed to kill 10% of red blood cells)” value in data set [2] stood at 100 µmol/L.

With “GLLKRIKTLL-NH2 [Anoplin, reference compound]”, the Peptide remaining in data set [1] (0.5 h, replicate 1) is given as 22.7; in data set [1] (0.5 h, replicate 2), 28.8; in data set [1] (0.5 h, replicate 3), 20.2; in data set [1] (1 h, replicate 1), 20.4; in data set [1] (1 h, replicate 2), 17.5; in data set [1] (1 h, replicate 3) it was 19.1. For the same substance, the Peptide remaining in data set [1] (2 h, replicate 1) is given as 14.2; in data set [1] (2 h, replicate 2), 14.0; in data set [1] (2 h, replicate 3) it was 0.0; in data set [1] (4 h, replicate 1), 0.0; in data set [1] (4 h, replicate 2), 0.0; in data set [1] (4 h, replicate 3) it was 0.0. Further, the Peptide remaining in data set [1] (6 h, replicate 1) was found to be 0.0; in data set [1] (6 h, replicate 2) it was 0.0; in data set [1] (6 h, replicate 3), 0.0. The amount remaining at 0.5 h in data set [1] (fetal bovine serum, 25% in water, LC peak area vs time 0, 30 min, three replicates, read-out: Peptide remaining after 30 min) was < 50%. The “Hemolytic activity (concentration of peptide needed to kill 10% of red blood cells)” value in data set [2] was found to be 50 µmol/L.

As to SLGALINVLKSGG-NH2 [DV], the Peptide remaining was 13.4 in data set [1] (0.5 h, replicate 1); 10.6 in data set [1] (0.5 h, replicate 2); 0.0 in data set [1] (0.5 h, replicate 3); 0.0 in data set [1] (1 h, replicate 1); 0.0 in data set [1] (1 h, replicate 2); 0.0 in data set [1] (1 h, replicate 3). Besides, the Peptide remaining is on record as 0.0 in data set [1] (2 h, replicate 1); 0.0 in data set [1] (2 h, replicate 2); 0.0 in data set [1] (2 h, replicate 3); 0.0 in data set [1] (4 h, replicate 1); 0.0 in data set [1] (4 h, replicate 2); 0.0 in data set [1] (4 h, replicate 3). Besides, the Peptide remaining is given as 0.0 in data set [1] (6 h, replicate 1); 0.0 in data set [1] (6 h, replicate 2); 0.0 in data set [1] (6 h, replicate 3). In addition, the “Hemolytic activity (concentration of peptide needed to kill 10% of red blood cells)” value in data set [2] is 0.1 µmol/L.

As for polymyxin B, the “A. baumannii load in the infected skin area (CFU quantification)” value (shortened to “A. baumannii load”) came out at 2000 in data set [3] (Day 2, mouse 1 of 8); 4000 in data set [3] (Day 2, mouse 2 of 8); 8000 in data set [3] (Day 2, mouse 3 of 8); 8000 in data set [3] (Day 2, mouse 4 of 8); 8000 in data set [3] (Day 2, mouse 5 of 8); 4000 in data set [3] (Day 2, mouse 6 of 8). Further, the “A. baumannii load” value in data set [3] (Day 2, mouse 7 of 8) was 4000; in data set [3] (Day 2, mouse 8 of 8), 2000; in data set [3] (Day 4, mouse 1 of 8) it was 2000; in data set [3] (Day 4, mouse 2 of 8), 2000; in data set [3] (Day 4, mouse 3 of 8), 2000; in data set [3] (Day 4, mouse 4 of 8), 2000. Also, the “A. baumannii load” value came out at 4000 in data set [3] (Day 4, mouse 5 of 8); 8000 in data set [3] (Day 4, mouse 6 of 8); 4000 in data set [3] (Day 4, mouse 7 of 8); 2000 in data set [3] (Day 4, mouse 8 of 8). The “Mouse body weight, normalized to the weight at the beginning of the experiment” value in data set [4] (day 0 = 100, Day 1, replicate 1) turned out to be 90; in data set [4] (day 0 = 100, Day 1, replicate 2) it was 95; in data set [4] (day 0 = 100, Day 1, replicate 3), 100; in data set [4] (day 0 = 100, Day 2, replicate 1) it was 90; in data set [4] (day 0 = 100, Day 2, replicate 2), 100; in data set [4] (day 0 = 100, Day 2, replicate 3) it was 100. For the same substance, the “Mouse body weight, normalized to the weight at the beginning of the experiment” value in data set [4] (day 0 = 100, Day 3, replicate 1) amounted to 90; in data set [4] (day 0 = 100, Day 3, replicate 2), 100; in data set [4] (day 0 = 100, Day 3, replicate 3), 105; in data set [4] (day 0 = 100, Day 4, replicate 1), 95; in data set [4] (day 0 = 100, Day 4, replicate 2), 100; in data set [4] (day 0 = 100, Day 4, replicate 3), 110.
